# Results reported in the supplement of paper PMC11061612.
# Tests used:
# COLO-679 (Melanoma) = experiment: Bliss excess, mean over the matrix (fraction); higher = more synergy
# Procedure, shortened: (§1)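 Bliss excess equals the observed combination effect minus the expected value EA + EB − EA·EB, where EA and EB are the effects of each agent alone. Combination Emax is the second-highest inhibition within the matrix. Inhibition was scaled from CellTiter-Glo 2.0 luminescence, with 0 set by vehicle wells and 1 by blank wells, after 72 hours of two-drug dosing of cells plated in 1536-well plates.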
# [1] = system: Ca-Ski (Cervical Carcinoma); experiment: as above
# Procedure, shortened: as §1
# [2] = system: A4-Fuk (B-Lymphoblastic Leukemia); experiment: combination Emax (second highest fraction inhibited in the dose matrix, 72 h); higher = more inhibition; extreme values may be limits of the assay
# Procedure, shortened: as §1
# [3] = system: ALL-SIL (T-Lymphoblastic Leukemia); experiment: as above
# Procedure, shortened: as §1
# [4] = system: CADO-ES1 (Ewing's Sarcoma); experiment: as above
# Procedure, shortened: as §1
# [5] = system: Ca-Ski (Cervical Carcinoma); experiment: as above
# Procedure, shortened: as §1
# [6] = system: DU-145 (Prostate Carcinoma); experiment: as above
# Procedure, shortened: as §1
# [7] = system: EJM (Plasma Cell Myeloma); experiment: as above
# Procedure, shortened: as §1
# [8] = system: HCC2998 (Colorectal Carcinoma); experiment: as above
# Procedure, shortened: as §1
# [9] = system: KOPN-8 (B-Lymphoblastic Leukemia); experiment: as above
# Procedure, shortened: as §1
# [10] = system: ME-180 (Cervical Carcinoma); experiment: as above
# Procedure, shortened: as §1
# [11] = system: ML-2 (Acute Myeloid Leukemia); experiment: as above
# Procedure, shortened: as §1
# [12] = system: MV-4-11 (Acute Myeloid Leukemia); experiment: as above
# Procedure, shortened: as §1
# [13] = system: NCI-H1092 (Small Cell Lung Carcinoma); experiment: as above
# Procedure, shortened: as §1
# [14] = system: NCI-H2122 (Lung Adenocarcinoma); experiment: as above
# Procedure, shortened: as §1
# [15] = system: NCI-H522 (Lung Adenocarcinoma); experiment: as above
# Procedure, shortened: as §1
# [16] = system: NCI-H650 (Lung Adenocarcinoma); experiment: as above
# Procedure, shortened: as §1
# [17] = system: OACM5-1 (Esophageal Adenocarcinoma); experiment: as above
# Procedure, shortened: as §1
# SK-N-AS (Neuroblastoma) = experiment: as above
# Procedure, shortened: as §1
# [18] = system: SW872 (Other Solid Carcinomas); experiment: as above
# Procedure, shortened: as §1
SMILES,Bliss excess (COLO-679 (Melanoma)),Bliss excess [1],combination Emax [2],combination Emax [3],combination Emax [4],combination Emax [5],combination Emax [6],combination Emax [7],combination Emax [8],combination Emax [9],combination Emax [10],combination Emax [11],combination Emax [12],combination Emax [13],combination Emax [14],combination Emax [15],combination Emax [16],combination Emax [17],combination Emax (SK-N-AS (Neuroblastoma)),combination Emax [18]
"Cc1c2c(nn1C)CSCc1cc(n(C)n1)CSc1cc(c3ccccc3c1)OCCCc1c(C(=O)O)n(C)c3c-2c(Cl)ccc13 [AZD5991] + CN(C)CCCOc1ccc(-c2ccc3ncc4c(c3c2)n(C2CCOCC2)c(=O)n4C)cn1 [AZD0156] (first compound max 1 µM, 7x7, partner max 1 µM)",0.0068,0.0319,1,0.986,0.946,0.303,0.192,0.965,0.952,0.963,0.278,1,1,0.562,0.656,0.387,0.272,0.928,0.614,0.226
"Cc1c2c(nn1C)CSCc1cc(n(C)n1)CSc1cc(c3ccccc3c1)OCCCc1c(C(=O)O)n(C)c3c-2c(Cl)ccc13 [AZD5991] + C[C@@H]1COCCN1C2=NC(=NC(=C2)C3(CC3)[S@](=N)(=O)C)C4=C5C=CNC5=NC=C4 [AZD6738] (first compound max 1 µM, 7x7, partner max 10 µM)",0.0047,0.0267,1,1,0.989,0.717,0.621,1,0.994,0.998,0.485,1,1,0.887,0.957,0.417,0.352,0.928,0.966,0.547
"Cc1c2c(nn1C)CSCc1cc(n(C)n1)CSc1cc(c3ccccc3c1)OCCCc1c(C(=O)O)n(C)c3c-2c(Cl)ccc13 [AZD5991] + C[C@@H](Nc1cc(F)cc(F)c1)c1cc(C(=O)N(C)C)cc2c(=O)cc(N3CCOCC3)oc12 [AZD8186] (first compound max 1 µM, 7x7, partner max 3 µM)",0.0127,0.0515,1,0.968,0.918,0.556,0.179,0.929,0.918,0.915,0.217,1,1,0.569,0.697,0.452,0.22,0.94,0.643,0.321
"Cc1c2c(nn1C)CSCc1cc(n(C)n1)CSc1cc(c3ccccc3c1)OCCCc1c(C(=O)O)n(C)c3c-2c(Cl)ccc13 [AZD5991] + Cc1cc2ncnn2cc1Nc1ncc2c(n1)n(C1CCOCC1)c(=O)n2C [AZD7648] (first compound max 1 µM, 7x7, partner max 10 µM)",0.0019,-0.0079,1,1,0.893,0.331,0.23,0.971,0.899,0.936,0.338,1,1,0.583,0.597,0.362,0.203,0.923,0.59,0.258
"C[C@@H]1COCCN1c1cc(C2([S@](C)(=N)=O)CC2)nc(-c2ccnc3[nH]ccc23)n1 [AZD6738] + O=C(c1cc(Cc2n[nH]c(=O)c3ccccc23)ccc1F)N1CCN(C(=O)C2CC2)CC1 [Olaparib] (first compound max 10 µM, 7x7, partner max 10 µM)",-0.0163,0.0414,0.706,0.95,0.915,0.647,0.548,0.899,0.811,0.876,0.425,0.955,0.985,0.184,0.902,0.23,0.193,0.518,0.687,0.63
"NC1(C(=O)N[C@@H](CCO)c2ccc(Cl)cc2)CCN(c2ncnc3[nH]ccc23)CC1 [Capivasertib] + CC(=O)c1c(C)c2cnc(Nc3ccc(N4CCNCC4)cn3)nc2n(C2CCCC2)c1=O [Palbociclib] (first compound max 10 µM, 7x7, partner max 10 µM)",-0.201,0.025,0.722,0.46,0.274,0.462,0.166,0.391,0.591,0.809,0.629,0.593,0.861,0.177,0.793,0.172,0.262,0.721,0.351,0.413
"NC1(C(=O)N[C@@H](CCO)c2ccc(Cl)cc2)CCN(c2ncnc3[nH]ccc23)CC1 [Capivasertib] + CC(C)n1c(=O)n(C)c2cnc3cc(F)c(-c4ccc(OCCCN5CCCCC5)nc4)cc3c21 [AZD1390] (first compound max 10 µM, 7x7, partner max 0.3 µM)",-0.116,-0.0436,0.786,0.389,0.0981,0.433,0.249,0.292,0.398,0.627,0.636,0.71,0.722,0.2,0.57,0.192,0.268,0.71,0.157,0.342
"NC1(C(=O)N[C@@H](CCO)c2ccc(Cl)cc2)CCN(c2ncnc3[nH]ccc23)CC1 [Capivasertib] + CCN(CCO)CCCOc1ccc2c(Nc3cc(CC(=O)Nc4cccc(F)c4)[nH]n3)ncnc2c1 [AZD2811] (first compound max 10 µM, 7x7, partner max 1 µM)",-0.2,0.0121,0.878,0.941,0.243,0.465,0.219,0.43,0.5,0.86,0.7,1,0.954,0.353,0.797,0.226,0.346,0.763,0.329,0.336
"NC1(C(=O)N[C@@H](CCO)c2ccc(Cl)cc2)CCN(c2ncnc3[nH]ccc23)CC1 [Capivasertib] + COc1nnc2ccc(N3CCC(c4ccc(OCCN5CCN(C)C(=O)[C@H]5C)cc4)CC3)nn12 [AZD5153] (first compound max 10 µM, 7x7, partner max 1 µM)",-0.122,0.0046,0.95,0.841,0.356,0.591,0.251,0.658,0.872,0.992,0.693,0.997,1,0.364,0.817,0.381,0.579,0.805,0.445,0.553
"NC1(C(=O)N[C@@H](CCO)c2ccc(Cl)cc2)CCN(c2ncnc3[nH]ccc23)CC1 [Capivasertib] + C[C@@H]1COCCN1C2=NC(=NC(=C2)C3(CC3)[S@](=N)(=O)C)C4=C5C=CNC5=NC=C4 [AZD6738] (first compound max 10 µM, 7x7, partner max 10 µM)",-0.128,0.0076,0.942,0.932,0.729,0.582,0.398,0.908,0.814,0.986,0.755,0.928,0.975,0.387,0.974,0.251,0.406,0.774,0.738,0.452
"NC1(C(=O)N[C@@H](CCO)c2ccc(Cl)cc2)CCN(c2ncnc3[nH]ccc23)CC1 [Capivasertib] + Cn1cnc2c(F)c(Nc3ccc(Br)cc3Cl)c(C(=O)NOCCO)cc21 [Selumetinib] (first compound max 10 µM, 7x7, partner max 10 µM)",-0.0912,0.0246,0.905,0.513,0.279,0.597,0.219,0.403,0.774,0.722,0.681,0.985,0.881,0.215,0.983,0.268,0.352,0.7,0.515,0.449
"COc1cccc2c1C(=O)c1c(O)c3c(c(O)c1C2=O)C[C@@](O)(C(=O)CO)C[C@@H]3O[C@H]1C[C@H](N)[C@H](O)[C@H](C)O1 [Doxorubicin] + Cc1cc2ncnn2cc1Nc1ncc2c(n1)n(C1CCOCC1)c(=O)n2C [AZD7648] (first compound max 1 µM, 7x7, partner max 10 µM)",0.0178,0.0498,0.877,0.983,0.873,0.913,0.649,0.903,0.943,0.916,0.958,0.913,1,0.479,0.284,0.697,0.334,0.834,0.723,0.811
"CS(=O)(=O)CCNCc1ccc(-c2ccc3ncnc(Nc4ccc(OCc5cccc(F)c5)c(Cl)c4)c3c2)o1 [Lapatinib] + C[C@@H](Oc1cc(-c2cnn(C3CCNCC3)c2)cnc1N)c1c(Cl)ccc(F)c1Cl [Crizotinib] (first compound max 10 µM, 7x7, partner max 10 µM)",-0.066,-0.042,0.976,1,0.774,0.969,0.286,0.937,0.938,0.978,0.81,0.983,0.978,0.604,0.962,0.457,0.615,0.889,0.359,0.496
